One experiment has as its system A375 cells. As to the kind of experiment: A375 Cell Proliferation Assay (2). The settings on record: Homo sapiens, A-375. Type of experiment: cell-based.
The target of experiment [1] is A-Raf kinase (SEQ. ID No: 1) (Homo sapiens (Human), UniProt P10398, Y301D/Y302D). As to the kind of experiment: Biochemical Assay for A-Raf (2). The settings on record: Table J, biochemical assay (2); read-out: ARAF (2). The method in brief: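 Coupled pyruvate kinase/lactate dehydrogenase assay with 20 nM A-Raf, 100 nM MEK substrate, 1 mM ATP, pH 7.5 Tris buffer, 1% DMSO. NADH oxidation followed at 340 nm hourly for 4 h at 30 °C, rate taken over 3–4 h. IC50 from four-parameter fit of percent inhibition.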

A further experiment concerns H2405 cells. As to the kind of experiment: H2405 Cell Proliferation Assay (2). Conditions: Homo sapiens, NCI-H2405. The format is cell-based. As for the experimental part: H2405 Cell Proliferation Assay (2)
H2405 cells (catalog #CRL-5994) are obtained from the American Type Culture Collect (ATTC, Manassas, VA). Briefly, cells were grown in RPMI 1640 supplemented with 5% characterized fetal bovine serum (Invitrogen, Carlsbad, CA) and 1% Penicillin/Streptomycin/L-Glutamine at 37° C., 5% CO2, and 95% humidity. Cells are expanded until reaching 70-95% confluency at which point they are sub-cultured or harvested for assay use. A serial dilution of test compound is dispensed into a 384-well black clear bottom plate in triplicate. Seven hundred fifty cells are added per well in 50 μL complete growth medium in the 384-well plate. Plates are incubated for 67-72 h at 37° C., 5% CO2, and 95% humidity. At the end of the incubation, 10 μL of a 440 μM solution of resazurin (Sigma, St. Louis, MO) in PBS is added to each well of the plate and plates are incubated for an additional 5-6 h at 37° C., 5% CO2, and 95% humidity. Plates are read on a Synergy2 or equivalent reader (Biotek, Winooski VT) using an excitation of 540 nm and an emission of 600 nm. Data is analyzed using Prism software (GraphPad, San Diego, CA) to calculate IC50 values

For the next experiment, the system named is WM3629 cells. The experiment in a line: WM3629 Cell Proliferation Assay (2). Type of experiment: cell-based. As for the experimental part: WM3629 Cell Proliferation Assay (2)
WM3629 cells (#WM3629-01-0001) are obtained from Rockland Immunochemicals Inc (Gilbertsville, PA). Briefly, cells were grown in MCDB 153 medium (Sigma, #M7403, St. Louis, MO) supplemented with 20% Leibovitz's L-15 (ThermoFisher #11415-064, Waltham, MA), 2% heat inactivated fetal bovine serum (ThermoFisher, #A3840001, Waltham, MA), 5 μg/mL Insulin (Bovine Pancreas) (Sigma, #I0516, St. Louis, MO), 1.68 mM Calcium Chloride (Sigma, #C-34006, St. Louis, MO) and 1% Penicillin/Streptomycin/L-Glutamine (ThermoFisher #10378016, Waltham, MA) at 37° C., 5% CO2, and 95% humidity. Cells are expanded until reaching 70-95% confluency at which point they are sub-cultured or harvested for assay use. Using the Beckman Coulter Echo 650, a serial dilution of test compound is dispensed into a 384-well black clear bottom plate in triplicate. One thousand one hundred twenty-five cells are added per well in 50 μL complete growth medium in the 384-well plate. Plates are incubated for 67-72 hours at 37° C., 5% CO2, and 95% humidity. At the end of the incubation, 10 μL of a 440 μM solution of resazurin (Sigma, #199303, St. Louis, MO) in PBS is added to each well of the plate and plates are incubated for an additional 3-6 hours at 37° C., 5% CO2, and 95% humidity. Plates are read on a Synergy2 or equivalent reader (Biotek, Winooski VT) using an excitation of 540 nm and an emission of 600 nm. Data is analyzed using Prism software (GraphPad, San Diego, CA) to calculate IC50 values.

The structures appear in SMILES notation.

Sequence of A-Raf kinase (SEQ. ID No: 1) (P10398 other isoform, or with tags, fused parts or gaps Y301D (already in the parent)/Y302D (already in the parent)): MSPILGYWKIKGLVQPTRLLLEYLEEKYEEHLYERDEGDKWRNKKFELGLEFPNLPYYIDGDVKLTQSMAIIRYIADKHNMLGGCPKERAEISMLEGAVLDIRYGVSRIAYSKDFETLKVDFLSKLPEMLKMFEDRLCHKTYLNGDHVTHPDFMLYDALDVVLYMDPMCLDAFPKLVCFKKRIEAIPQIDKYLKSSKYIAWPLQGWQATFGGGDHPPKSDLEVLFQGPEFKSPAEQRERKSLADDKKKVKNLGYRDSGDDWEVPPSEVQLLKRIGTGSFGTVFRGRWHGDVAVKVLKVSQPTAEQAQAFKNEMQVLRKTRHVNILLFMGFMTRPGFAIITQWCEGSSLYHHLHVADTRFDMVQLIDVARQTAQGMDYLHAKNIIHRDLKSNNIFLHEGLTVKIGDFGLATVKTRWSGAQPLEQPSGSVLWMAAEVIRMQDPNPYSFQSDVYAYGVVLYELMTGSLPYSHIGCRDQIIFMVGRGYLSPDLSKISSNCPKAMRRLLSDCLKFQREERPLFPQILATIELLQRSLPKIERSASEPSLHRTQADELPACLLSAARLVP

For the compound `CC(C)(F)c1cc(C(=O)Nc2ccc(F)c(-c3ccnc(-c4ccnc(C(N)=O)c4)c3)c2)ccn1` [Example 491], the IC50 in the experiment with A375 cells was 1000 to 10000 nM; in experiment [1], 1000 to 10000 nM; in the experiment with H2405 cells, 100 to 500 nM; with WM3629 cells, not above 100 nM.
Turning to `[2H]C([2H])([2H])NC(=O)c1cc(-c2cc(-c3cc(NC(=O)c4ccnc(C5(F)CC5)c4)ccc3C)cc(C)n2)ccn1` [Example 498], the IC50 in the experiment on A375 cells is 100 to 500 nM; in experiment [1], 1000 to 10000 nM; in the experiment with H2405 cells, 100 to 500 nM; with WM3629 cells it was not above 100 nM.
Consider `CNC(=O)c1cc(-c2cc(-c3cc(NC(=O)c4ccnc(C(C)(C)F)c4)ccc3Cl)ccn2)ccn1` [Example 485], for which the IC50 in the experiment on A375 cells was not above 100 nM; in experiment [1] it was 1000 to 10000 nM; with H2405 cells, 100 to 500 nM; in the experiment on WM3629 cells, not above 100 nM.
Turning to `Cc1ccc(NC(=O)c2ccnc(C(C)(C)F)c2)cc1-c1cnnc(-c2ccnc(C(N)=O)c2)c1` [Example 486], the IC50 with A375 cells is 100 to 500 nM; in experiment [1], 1000 to 10000 nM; in the experiment on H2405 cells it was 500 to 1000 nM; in the experiment with WM3629 cells it was not above 100 nM.
The like results for `Cc1ccc(NC(=O)c2ccnc(C(C)(C)F)c2)cc1-c1cc(-c2ccnc(C(N)=O)c2)ncc1F` [Example 490] were, in that order, 100 to 500 nM, 1000 to 10000 nM, 100 to 500 nM and not above 100 nM.
The like results for `CNC(=O)c1cc(-c2cc(-c3cc(NC(=O)c4ccnc(C(C)(C)F)c4)c(F)cc3C)ccn2)ccn1` [Example 497] were, in that order, 100 to 500 nM, 1000 to 10000 nM, 100 to 500 nM and not above 100 nM.
The matching figures for `CNC(=O)c1cc(-c2cc(-c3cc(NC(=O)c4ccnc(C(C)(C)F)c4)ncc3C)ccn2)ccn1` [Example 499]: not above 100 nM, 1000 to 10000 nM, 100 to 500 nM and not above 100 nM.
For the compound `[2H]C([2H])([2H])NC(=O)c1cc(-c2cc(-c3cc(NC(=O)c4ccnc(C(C)(C)F)c4)ccc3C)ccn2)ccn1` [Example 489], the IC50 in the experiment with A375 cells was not above 100 nM; in experiment [1], 100 to 500 nM; in the experiment on H2405 cells, not above 100 nM; with WM3629 cells, not above 100 nM.
Turning to `CNC(=O)c1cc(-c2cc(-c3cc(NC(=O)c4ccnc(C5(F)CC5)c4)ccc3C)cc(C)n2)ccn1` [Example 496], the IC50 in the experiment with A375 cells was not above 100 nM; in experiment [1], 1000 to 10000 nM; in the experiment on H2405 cells, 100 to 500 nM; in the experiment with WM3629 cells, not above 100 nM.
Regarding `[2H]C([2H])([2H])NC(=O)c1cc(-c2cc(-c3cc(NC(=O)c4ccnc(C(C)(C)F)c4)ccc3C)cc(C)n2)ccn1` [Example 493], the IC50 was not above 100 nM in the experiment with A375 cells, 1000 to 10000 nM in experiment [1], 100 to 500 nM with H2405 cells and not above 100 nM in the experiment with WM3629 cells.
As for `Cc1ccc(NC(=O)c2ccnc(C(C)(C)F)c2)cc1-c1cc(-c2ccnc(C(N)=O)c2)ncn1` [Example 488], the IC50 is 100 to 500 nM in the experiment with A375 cells, 500 to 1000 nM in experiment [1], 100 to 500 nM with H2405 cells and not above 100 nM in the experiment on WM3629 cells.
On to `Cc1ccc(NC(=O)c2cccc(C(F)(F)F)c2)cc1-c1ccnc(-c2ccnc(NC(=O)C3CC3)c2)c1` [Example 502], for which the IC50 in the experiment with A375 cells was not above 100 nM; in experiment [1], 100 to 500 nM; with H2405 cells, not above 100 nM; with WM3629 cells, not above 100 nM.
On to `CNC(=O)c1cc(-c2cc(-c3cc(NC(=O)c4cnnc(C(C)(F)F)c4)ccc3C)ccn2)ccn1` [Example 492], for which the IC50 is 100 to 500 nM with A375 cells, 1000 to 10000 nM in experiment [1], 100 to 500 nM with H2405 cells and not above 100 nM in the experiment with WM3629 cells.
On to `CNC(=O)c1cc(-c2cc(-c3cc(NC(=O)c4ccnc(C5(F)CC5)c4)ccc3C)ccn2)ccn1` [Example 487], for which the IC50 is not above 100 nM in the experiment on A375 cells, 100 to 500 nM in experiment [1], not above 100 nM in the experiment on H2405 cells and not above 100 nM with WM3629 cells.
In the case of `CNC(=O)c1cc(-c2cc(-c3cc(NC(=O)c4ccnc(C(C)(C)F)n4)ccc3C)ccn2)ccn1` [Example 494], the IC50 in the experiment with A375 cells is 1000 to 10000 nM; in experiment [1], 1000 to 10000 nM; with H2405 cells, 1000 to 10000 nM; with WM3629 cells, not above 100 nM.
`Cc1ccc(NC(=O)c2ccc(C(F)(F)F)cc2)cc1-c1ccnc(-c2ccnc(NC(=O)C3CC3)c2)c1` [Example 501]: the IC50 with A375 cells was 100 to 500 nM; in experiment [1] it was 1000 to 10000 nM; in the experiment with H2405 cells, 100 to 500 nM; in the experiment with WM3629 cells, not above 100 nM.
On to `Cc1ccc(NC(=O)c2cc(C(F)(F)F)ccc2F)cc1-c1ccnc(-c2ccnc(NC(=O)C3CC3)c2)c1` [Example 503], for which the IC50 in the experiment on A375 cells is 100 to 500 nM; in experiment [1], 100 to 500 nM; with H2405 cells, 100 to 500 nM; with WM3629 cells, not above 100 nM.
For `CNC(=O)c1cc(-c2cc(-c3cc(NC(=O)c4cnnc(C(C)(C)F)c4)ccc3C)ccn2)ccn1` [Example 495], the IC50 is not above 100 nM in the experiment on A375 cells, 500 to 1000 nM in experiment [1], 100 to 500 nM in the experiment on H2405 cells and not above 100 nM in the experiment with WM3629 cells.
Take `Cc1ccc(NC(=O)c2cn(C)nc2C(F)(F)F)cc1-c1cncc(-c2ccnc(NC(=O)C3CC3)c2)c1` [Example 500]: the IC50 is 1000 to 10000 nM in the experiment on A375 cells, 1000 to 10000 nM in experiment [1], 1000 to 10000 nM with H2405 cells and not above 100 nM with WM3629 cells.
